The source of these data is patent US10125100B2, “Kinase inhibitors” (Respivert Limited, priority 2014, dated 2018).

Structures are written as SMILES.

In this data set the test system is Jurkat cells. The data set can be described thus: (r) Cell cytotoxicity assay. It counts as cell-based, human. The following applies: 24 hours. The procedure, abridged:
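Jurkat cells (1×10^5/well, RPMI + 10% FBS) exposed to compound at 20, 5 or 1 μg/mL final (1.0% DMSO control) for 24 h at 37° C., 5% CO2. Then stained with 7.5 μg/mL propidium iodide for 15 min. % viability = PI-negative cells by flow cytometry, normalized to DMSO.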

As to `COc1cc(Nc2cc(Oc3ccc(NC(=O)Nc4cc(C(C)(C)C)cc(NS(C)(=O)=O)c4OC)c4ccccc34)ccn2)ccc1C(=O)NCCNC(=O)CCC(=O)O` [17(cd), 4-((2-(4-((4-((4-(3-(5-(tert-Butyl)-2-methoxy-3-(methylsulfonamido)phenyl)ureido)-naphthalen-1-yl)oxy)pyridin-2-yl)amino)-2-methoxybenzamido)ethyl)amino)-4-oxobutanoic acid], the “% Viability at 1 μg/mL” value stood at 96.4%, the “% Viability at 5 μg/mL” value turned out to be 96.5% and the “% Viability at 20 μg/mL” value was determined as 91.4%.

Regarding `CCN1CCN(CCNC(=O)c2ccc(Nc3cc(Oc4ccc(NC(=O)Nc5cc(C(C)(C)C)cc(NS(C)(=O)=O)c5OC)c5ccccc45)ccn3)cc2OC)CC1` [17(be), 4-((4-((4-(3-(5-(tert-Butyl)-2-methoxy-3-(methylsulfonamido)phenyl)ureido)naphthalen-1-yl)oxy)pyridin-2-yl)amino)-N-(2-(4-ethylpiperazin-1-yl)ethyl)-2-methoxybenzamide], the “% Viability at 1 μg/mL” value came out at 92.4%, the “% Viability at 5 μg/mL” value turned out to be 0.7% and the “% Viability at 20 μg/mL” value worked out at 0.5%.

In the case of `COc1cc(Nc2cc(Oc3ccc(NC(=O)Nc4cc(C(C)(C)C)cc(NS(C)(=O)=O)c4OC)c4ccccc34)ccn2)ccc1C(=O)NCCN1CCN(C(C)C)CC1` [17(bf), 4-((4-((4-(3-(5-(tert-Butyl)-2-methoxy-3-(methylsulfonamido)phenyl)ureido)naphthalen-1-yl)oxy)pyridin-2-yl)amino)-N-(2-(4-isopropylpiperazin-1-yl)ethyl)-2-methoxybenzamide], the “% Viability at 1 μg/mL” value was determined as 90.7%, the “% Viability at 5 μg/mL” value came out at 1.5% and the “% Viability at 20 μg/mL” value is given as 0.6%.

Turning to `COc1cc(Nc2cc(Oc3ccc(NC(=O)Nc4cc(C(C)(C)C)cc(NS(C)(=O)=O)c4OC)c4ccccc34)ccn2)ccc1C(=O)NCC[N+]1([O-])CCOCC1` [Example 33, 4-(2-(4-((4-((4-(3-(5-(tert-Butyl)-2-methoxy-3-(methylsulfonamido)phenyl)ureido)naphthalen-1-yl)oxy)pyridin-2-yl)amino)-2-methoxybenzamido)ethyl)morpholine 4-oxide], the “% Viability at 1 μg/mL” value came out at 104.1%, the “% Viability at 5 μg/mL” value is on record as 95.5% and the “% Viability at 20 μg/mL” value came to 69.3%.

`COc1cc(Nc2cc(Oc3ccc(NC(=O)Nc4cc(C(C)(C)C)cc(NS(C)(=O)=O)c4OC)c4ccccc34)ccn2)ccc1C(=O)NCCCCCN(C)C` [17(bd), 4-((4-((4-(3-(5-(tert-Butyl)-2-methoxy-3-(methylsulfonamido)phenyl)ureido)naphthalen-1-yl)oxy)pyridin-2-yl)amino)-N-(5-(dimethylamino)pentyl)-2-methoxybenzamide]: the “% Viability at 1 μg/mL” value came to 85.8%, the “% Viability at 5 μg/mL” value is 28.7% and the “% Viability at 20 μg/mL” value is reported as 0.1%.

In the case of `COc1cc(Nc2cc(Oc3ccc(NC(=O)Nc4cc(C(C)(C)C)cc(NS(C)(=O)=O)c4OC)c4ccccc34)ccn2)ccc1C(=O)N[C@H]1C(O)O[C@H](CO)[C@@H](O)[C@@H]1O` (stereo partly drawn) [17(br), 4-((4-((4-(3-(5-(tert-Butyl)-2-methoxy-3-(methylsulfonamido)phenyl)ureido)naphthalen-1-yl)oxy)pyridin-2-yl)amino)-2-methoxy-N-((3R,4R,5S,6R)-2,4,5-trihydroxy-6-(hydroxymethyl)tetrahydro-2H-pyran-3-yl)benzamide], the “% Viability at 1 μg/mL” value is 91.8%, the “% Viability at 5 μg/mL” value is on record as 90.7% and the “% Viability at 20 μg/mL” value is on record as 79.2%.

As for `COc1cc(Nc2nccc(Oc3ccc(NC(=O)Nc4cc(C(C)(C)C)cc(NS(C)(=O)=O)c4OC)c4ccccc34)n2)cc(OC)c1C(=O)NCCN1CCN(C)CC1` [17(az), 4-((4-((4-(3-(5-(tert-Butyl)-2-methoxy-3-(methylsulfonamido)phenyl)ureido)naphthalen-1-yl)oxy)pyrimidin-2-yl)amino)-2,6-dimethoxy-N-(2-(4-methylpiperazin-1-yl)ethyl)benzamide], the “% Viability at 1 μg/mL” value is 105.4%, the “% Viability at 5 μg/mL” value turned out to be 93.1% and the “% Viability at 20 μg/mL” value was 4.5%.

`COc1cc(Nc2cc(Oc3ccc(NC(=O)Nc4cc(C(C)(C)C)cc(NS(C)(=O)=O)c4OC)c4ccccc34)ccn2)ccc1C(=O)N(C)CCN1CCOCC1` [17(ab), 4-[[4-[[4-[[5-tert-butyl-3-(methanesulfonamido)-2-methoxy-phenyl]carbamoylamino]-1-naphthyl]oxy]-2-pyridyl]amino]-2-methoxy-N-methyl-N-(2-morpholinoethyl)benzamide]: the “% Viability at 1 μg/mL” value is on record as 108.6%, the “% Viability at 5 μg/mL” value was 95.6% and the “% Viability at 20 μg/mL” value is listed as 93.9%.

As for `COc1cc(Nc2cc(Oc3ccc(NC(=O)Nc4cc(C(C)(C)C)cc(NS(C)(=O)=O)c4OC)c4ccccc34)ccn2)cc(OC)c1C(=O)NCCC1CCN(C)CC1` [17(at), 4-((4-((4-(3-(5-(tert-Butyl)-2-methoxy-3-(methylsulfonamido)phenyl)ureido)naphthalen-1-yl)oxy)pyridin-2-yl)amino)-2,6-dimethoxy-N-(2-(1-methylpiperidin-4-yl)ethyl)benzamide], the “% Viability at 1 μg/mL” value was determined as 95.2%, the “% Viability at 5 μg/mL” value was 93.2% and the “% Viability at 20 μg/mL” value is 86.6%.

Consider `COc1cc(Nc2cc(Oc3ccc(NC(=O)Nc4cc(C(C)(C)C)cc(NS(C)(=O)=O)c4OC)c4ccccc34)ccn2)cc(OC)c1C(=O)NC1CCN(C)CC1` [17(bz), 4-((4-((4-(3-(5-(tert-Butyl)-2-methoxy-3-(methylsulfonamido)phenyl)ureido)naphthalen-1-yl)oxy)pyridin-2-yl)amino)-2,6-dimethoxy-N-(1-methylpiperidin-4-yl)benzamide], for which the “% Viability at 1 μg/mL” value is 93.6%, the “% Viability at 5 μg/mL” value amounted to 92.7% and the “% Viability at 20 μg/mL” value amounted to 64.1%.

Regarding `COc1cc(Nc2cc(Oc3ccc(NC(=O)Nc4cc(C(C)(C)C)cc(NS(C)(=O)=O)c4OC)c4ccccc34)ccn2)ccc1C(=O)NC[C@@H]1O[C@H](CO)[C@@H](O)[C@H](O)[C@H]1O` [17(co), 4-((4-((4-(3-(5-(tert-Butyl)-2-methoxy-3-(methylsulfonamido)phenyl)ureido)naphthalen-1-yl)oxy)pyridin-2-yl)amino)-2-methoxy-N-(((2S,3R,4R,5S,6R)-3,4,5-trihydroxy-6-(hydroxymethyl)tetrahydro-2H-pyran-2-yl)methyl)benzamide], the “% Viability at 1 μg/mL” value amounted to 94.5%, the “% Viability at 5 μg/mL” value came to 93.3% and the “% Viability at 20 μg/mL” value is 92.2%.

For `COc1cc(Nc2nccc(Oc3ccc(NC(=O)Nc4cc(C(C)(C)C)cc(NS(C)(=O)=O)c4OC)c4ccccc34)n2)ccc1C(=O)NCCN1CCN(C)CC1` [17(aq), 4-((4-((4-(3-(5-(tert-Butyl)-2-methoxy-3-(methylsulfonamido)phenyl)ureido)naphthalen-1-yl)oxy)pyrimidin-2-yl)amino)-2-methoxy-N-(2-(4-methylpiperazin-1-yl)ethyl)benzamide], the “% Viability at 1 μg/mL” value is 95.1%, the “% Viability at 5 μg/mL” value was determined as 0.2% and the “% Viability at 20 μg/mL” value was 1.3%.
